Key:
9L glioma cells = test: In vitro imaging of CTX:Cy5.5 binding to 9L glioma cells (NIR/confocal microscopy); type: cell-based, rat; conditions: pre-incubation with MMP-2 inhibitor
Description: 9L/lacZ gliosarcoma cells (ATCC, VA) and primary human foreskin fibroblast (HFF) were maintained in DMEM and RPMI medium both supplemented with 1% sodium pyruvate, 1% streptomycin/penicillin and 10% FBS (Hyclone, UT), respectively. 2×10^5 cells were seeded on sterile cover slips 36 hrs prior to labeling and confocal microscopy. Cells were cultured with 1 ml of CTX:CY5.5 conjugate (1 uM) for 2 hours in a 37° C. humidified incubator maintained at 5% CO2. Cover slips were washed 2 times in cell culture medium and 2 times in PBS buffer. Following this step, cell membranes were stained with 1 μM solution of FM 1-43FX (Molecular Probes, OR) for 20 min in dark at room temperature, washed 2 times in PBS and fixed in 4% paraformaldehyde. Cellular nuclei were stained with 4′,6-diamidino-2-phenylndole (DAPI, Sigma Aldrich, MO).
Confocal images were acquired using a DeltaVision SA3.1 Wide-Field Deconvolution Microscope (Applied Precision, WA) equipped with DAPI, TRITC, and Cy5 filters. Image processing was performed using SoftWoRX (Applied Precision, WA).
To determine whether CTX retained specific binding to glioma cells after conjugation to Cy5.5, we incubated the conjugate with 9L glioma cells and primary fibroblasts and evaluated binding by NIR microscopy. […]

9L glioma xenografts = test: In vivo biophotonic imaging of mice with 9L glioma xenografts; parameters: species or system mouse; conditions: versus control mice without 1,10-phenanthroline
Description: All mouse studies were conducted in accordance with IACUC approved protocols. Subcutaneous xenografts were established in nu/nu (nude) mice using 9L, a rat gliosarcoma cell line (ATCC), and RH30, a rhabdomyosarcoma cell line. The xenografts were established using 1 million 9L or RH30 cells suspended in serum free media and matrigel at a 1:1 ratio. Intracranial xenografts were established by stereotaxic injection of 1 million 9L cells suspended in 10 μl PBS into the brain 3 mm lateral and posterior to the bregma. ND2:SmoA1 medulloblastoma mice, TRAMP prostate cancer mice and Apc^1638N intestinal adenoma and adenocarcinoma mice were as previously described. See, Fodde, R., et al., A targeted chain-termination mutation in the mouse Apc gene results in multiple intestinal tumors. Proc. Natl. Acad. Sci. U.S.A., 1994. 91(19): p. 8969-73; Greenberg, N. M., et al., Prostate cancer in a transgenic mouse. Proc. Natl. Acad. Sci. U.S.A., 1995. 92(8): p. […]
CTX:Cy5.5 (0.1-0.2 ml of 10-20 μM) was administered intravenously by tail vein injection. […] Relevant organs and tumors were dissected from some of the animals and fluorescence image were obtained immediately following dissection. In time course experiments, all images were captured using identical system settings and fluorescence emission was normalized to photons per second per centimeter squared per steradian (p/s/cm^2/sr).

[1] = test system: glioma and normal brain histologic sections; test: Staining of histologic sections of glioma and normal brain; parameters: species or system human
[2] = previously reported; cited from earlier work
[3] = type: in vivo, mouse
Description: To further assess potential CTX toxicity at doses used for optical imaging, complete necropsy was performed on mice two weeks after exposure to CTX.

## c1cnc2c(c1)ccc1cccnc12 [1,10-phenanthroline]
9L glioma cells
  Binding of CTX:Cy5.5 to 9L glioma cells after pre-incubation with 1,10-phenanthroline: blocked
9L glioma xenografts
  Specific binding of CTX:Cy5.5 in mice pre-treated with 1,10-phenanthroline: six-fold lower

## Cy5.5
[1]
  staining of glioma section: does not stain glioma

## chlorotoxin [CTX]
[2]
  locomotor activity in mice: reduce locomotor activity
[3]; doses used for optical imaging
  laboratory evaluation (electrolytes, blood counts, liver and kidney function): no alteration
  toxicity overall: no toxicity could be detected
[3]; doses used for optical imaging, b143: two weeks after exposure
  pathologic changes in organs (necropsy): indistinguishable from control mice
[3]; injected mice versus control mice
  open field observation: indistinguishable from control mice
